Measured values: publication PMC4492579, “Potent and Selective Triazole-Based Inhibitors of the Hypoxia-Inducible Factor Prolyl-Hydroxylases with Activity in the Murine Brain” (PLoS ONE, 2015)
Counter-ions that a name gives are not always drawn. Like-named read-outs stand apart in the source and are kept apart here.

Tests used:
MCF-7 = experiment: Quantitative HIF1α MSD immunoassay, MCF-7; assay type: cell-based; settings: Homo sapiens, read-out: HIF1α EC50
Procedure: Cells were seeded into 96-well cell culture plates (150 μl culture volume) at approximately 60–70% confluency at least 12 h prior to the compound treatment. Half of the culture medium (75 μl/well) were removed and 75 μl/well of medium containing the desired concentrations of compounds were added into cells for 5 h. The cell medium was then removed and the cells were washed once with phosphate buffered saline (PBS), followed by the addition of lysis buffer (20 mM Tris pH 7.4, 450 mM NaCl, 1 mM EDTA, 1 mM EGTA, 0.5% Triton X-100, 1x complete protease inhibitor cocktail and 100 μM DFO). Plates were then left at 4°C with shaking. […] Plates were washed thrice with Tris Wash Buffer, added with 150 μl/well 2X Read Buffer (R92TC, Meso Scale Discovery) before being read with an MSD Sector S600 plate reader (Meso Scale Discovery). Signals generated were normalized to “lysis buffer-only” controls.
To quantify the cellular efficiency of PHD inhibition, we developed an electrochemiluminescence-based assay for the quantification of HIF1α levels using the Meso Scale Discovery (MSD, http://www.mesoscale.com) technology (HIF1α MSD assay), which is based on the capture and detection of HIF1α protein using two specific HIF1α antibodies. […]

JMJD2E (KDM4E) = target: T1, JMJD2E (KDM4E) (Homo sapiens, UniProt B2RXH2); design: method as in PMID 26682036; settings: cited from earlier work
T1 sequence (B2RXH2 1-506): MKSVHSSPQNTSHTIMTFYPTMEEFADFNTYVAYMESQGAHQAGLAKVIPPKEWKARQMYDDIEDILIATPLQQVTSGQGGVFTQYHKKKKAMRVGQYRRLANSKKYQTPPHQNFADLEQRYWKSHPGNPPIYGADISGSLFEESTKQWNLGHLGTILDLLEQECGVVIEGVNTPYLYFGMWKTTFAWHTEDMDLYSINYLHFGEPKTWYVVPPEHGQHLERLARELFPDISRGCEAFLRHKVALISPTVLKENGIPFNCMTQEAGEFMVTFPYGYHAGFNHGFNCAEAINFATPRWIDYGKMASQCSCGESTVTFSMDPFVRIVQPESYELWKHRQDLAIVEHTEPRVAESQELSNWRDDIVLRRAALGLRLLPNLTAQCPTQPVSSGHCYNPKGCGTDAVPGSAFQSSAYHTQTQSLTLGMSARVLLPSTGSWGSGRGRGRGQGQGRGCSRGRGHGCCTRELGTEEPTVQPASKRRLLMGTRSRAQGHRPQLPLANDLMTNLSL

HeLa cells = experiment: Immunoblotting of HIF1α induction in HeLa cells; assay type: cell-based, human; settings: VHL-competent HeLa cells, immunoblot
Procedure: (§1) Human cell lines (RCC4, HeLa, Hep3B, MCF-7 and U2OS) were cultured in DMEM (D6546-500ML; Sigma Aldrich) each supplemented with 10% fetal bovine serum (F7524-500ML; Sigma Aldrich), 2 mM L-glutamine (G7513- 100ML; Sigma Aldrich), 50 units/ml of penicillin, and 50 μg/ml of streptomycin (P0781-100ML; Sigma Aldrich). The RCC4 cell line was a gift from C.H.C.M. Buys (University of Groningen, [2]), the HeLa and Hep3B cell lines were from the European Collection of Cell Cultures (ECACC), the MCF-7 cell line was from the American Type Culture Collection (ATCC) and the U2OS cell line was a gift from S.Galey (ICRF Clare Hall Laboratories, United Kingdom). Cells were treated either with DMSO (control) or compounds (dissolved in DMSO) and added directly into the cell culture medium to the desired final concentration for 4–5 h as previously described.
(§2) Cells were extracted using urea/SDS buffer (6.7 M urea, 10 mM Tris-HCl pH 6.8, 10% glycerol and 1% SDS) and processed for immunoblotting as described. The following primary antibodies were used for immunoblotting: mouse monoclonal HIF1α antibody clone 54 (610958, BD Transduction Laboratories, 1:1000), rabbit polyclonal HIF1α hydroxy-Pro402 antibody (07–1585, Millipore, 1:1000), rabbit monoclonal HIF1α hydroxy-Pro564 antibody clone D43B5 (3434S, Cell Signaling, 1:500), mouse monoclonal HIF1α hydroxy-Asn803 antibody (a kind gift from Dr M. K. Lee, Republic of Korea, 1:4000), mouse monoclonal PHD2 antibody clone 76a (1:10), mouse monoclonal FIH antibody clone 162c (1:200) and β-actin/HRP (clone AC15, Abcam). HRP-conjugated swine polyclonal anti-rabbit IgG (P0399, Dako), and goat polyclonal anti-mouse IgG (P0447, Dako) were used as secondary antibodies.
(§3) In this cell line, the extent of the differential HIF1α prolyl hydroxylation at the N-terminal and C-terminal oxygen-dependent degradation domains (HyPro402 and HyPro564, respectively), as well as HIF1α asparaginyl hydroxylation at the C-terminal transactivation domain (HyAsn803) can be interrogated by immunoblotting using hydroxylation specific antibodies.

RCC4 cells = experiment: Immunoblotting of HIF1α hydroxylation in VHL-defective RCC4 cells; assay type: cell-based, human; settings: immunoblot
Procedure: as §1, §2, §3

Structure (SMILES)	EC50 (MCF-7; MCF7, MCF-7, 5 h treatment, MSD assay) [µM]	IC50 (JMJD2E (KDM4E)) [µM]	EC50 (MCF-7; MCF7, 5 h) [µM]	HIF1α induction (HeLa cells)	concentration at which activity (HIF1α induction) observed (HeLa cells) [µM]	HIF1α prolyl-hydroxylation (HyPro402, HyPro564) (RCC4 cells)	HIF1α asparaginyl-hydroxylation (HyAsn803) (RCC4 cells; 50 μM)
O=C(O)CNC(=O)c1c(O)c2ccccc2n(Cc2ccccc2)c1=O [IOX2]	114	> 100	–	–	–	–	–
CC(C)(C)OC(=O)c1ccc(-n2[nH]cc(-n3ccnn3)c2=O)nc1 [IOX4, t-Butyl 6-(5-oxo-4-(1H-1,2,3-triazol-1-yl)-2,5-dihydro-1H-pyrazol-1-yl)nicotinate]	–	–	11.7	induced HIF1α	≥ 1	block prolyl-hydroxylation of HIF1α at both NODD (HyPro402) and CODD (HyPro564)	some apparent inhibition
O=C(O)c1ccc(-n2[nH]cc(-n3ccnn3)c2=O)nc1 [compound 1, 6-(5-oxo-4-(1H-1,2,3-triazol-1-yl)-2,5-dihydro-1H-pyrazol-1-yl)pyridine-3-carbocylic acid hydrochloride]	–	–	–	induced HIF1α	–	block prolyl-hydroxylation of HIF1α at both NODD (HyPro402) and CODD (HyPro564)	–
